A word on the Kd: it is the concentration at which binding is half-saturated. Higher therefore signals a looser complex.

Results on one molecule are retold here after PMC5651819, “AtSPX1 affects the AtPHR1–DNA-binding equilibrium by binding monomeric AtPHR1 in solution” (Biochemical Journal, 2017).

The target of this assay is T1, GST–AtSPX1 (Arabidopsis thaliana, UniProt Q8LBH4).
T1 construct: gene SPX1; contains degradation products and free GST
T1 sequence (Q8LBH4 1-256): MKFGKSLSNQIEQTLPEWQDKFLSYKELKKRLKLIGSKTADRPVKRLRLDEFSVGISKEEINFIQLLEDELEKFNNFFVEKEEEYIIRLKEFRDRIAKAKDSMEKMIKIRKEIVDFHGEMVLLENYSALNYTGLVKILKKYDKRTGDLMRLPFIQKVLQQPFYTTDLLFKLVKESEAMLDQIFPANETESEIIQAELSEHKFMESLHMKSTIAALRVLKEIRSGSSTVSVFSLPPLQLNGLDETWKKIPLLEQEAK
Put plainly: microscale thermophoresis. Particulars: unreliable; data not shown; some Pi binding to free GST, precise affinity could not be determined.

In turn, `O=P(O)(O)O` [Pi] came in with a Kd of 5 to 10 mM.
